These are literature values, as cited in US7572596B2, “Modulation of the neuroendoctrine system as a therapy for motor neuron disease” (University of Pittsburgh of the Commonwealth System of …, priority 2004, dated 2009).

The structures appear in SMILES notation.

One data set deals with human ALS patients. Particulars: 2003; for efficacy in human ALS patients: Groeneveld, Desnuelle, 2001.
For a further data set, the system named is SOD1 transgenic mice. To be noted: Groeneveld, 2003, Desnuelle, 2001.
Data set [1] deals with transgenic model for multiple sclerosis. Particulars: direct administration; Fernandez et al, 2004.

As to `CN(CC(=O)O)C(=N)N` [Creatine], the “efficacy in human ALS patients” value with human ALS patients was “minimal efficacy”. Besides, in the data set with SOD1 transgenic mice, the “efficacy in relieving the symptoms of ALS” value was “some efficacy”. As to `Nc1nc2ccc(OC(F)(F)F)cc2s1` [Riluzole], the “life expectancy of ALS patients” value in the data set on human ALS patients (ALS patients, Miller) is recorded as “extends life expectancy by only a few months”. As to `NC(Cc1cc(I)c(Oc2cc(I)c(O)c(I)c2)c(I)c1)C(=O)O` (stereo not shown) [T4], in data set [1], the axonal pathology result is given as “neuroprotective for axonal pathology” and the remyelination entry was “enhances remyelination”.

On to `Cc1c(C)c2c(c(C)c1O)CC[C@@](C)(CCC[C@H](C)CCC[C@H](C)CCCC(C)C)O2` [a-tocopherol], for which the “efficacy in human ALS patients” value with human ALS patients is reported as “minimal efficacy”. Moreover, the “efficacy in relieving the symptoms of ALS” value with SOD1 transgenic mice is recorded as “some efficacy”.
